We go through five compounds from patent publication US9850203B2, “Autotaxin inhibitor compounds” (PharmAkea, Inc., priority 2013, dated 2017).

A value given as a limit tells only on which side of the number the result lay.

The test addresses human autotaxin (ATX) (Homo sapiens (Human), UniProt Q13822). Nature of the test: Human Autotaxin Assay. In kind it is biochemical. Particulars: concentrated conditioned media from Hep3B cells; LPC substrate, choline release. The gist of the method: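 Autotaxin source: Hep3B conditioned medium concentrated 20-fold, preincubated with compound 15 min at 37° C in lyso-PLD buffer (100 mM Tris pH 9, 500 mM NaCl, 5 mM MgCl2, 5 mM CaCl2, 0.05% Triton X-100, ±0.2% fatty-acid-free HSA). 100 uM LPC (14:0) then added, 1.5-3 hours at 37° C; choline release measured.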
Usually IC50 stands for the concentration at which inhibition is half-maximal. Low readings indicate greater potency in that assay, high ones weaker potency in that assay. Turning to `Cc1c(Sc2cccc(C(=O)O)c2F)c2ccc(Cl)c(F)c2n1CCN1CC2(CC2)c2ccccc21` [Compound 2-74, Sodium 3-((6-chloro-7-fluoro-2-methyl-1-(2-(spiro[cyclopropane-1,3′-indolin]-1′-yl)ethyl)-1H-indol-3-yl)thio)-2-fluorobenzoate], the IC50 is ≤ 500 nM.
For the compound `Cc1c(Sc2cccc(C(=O)O)c2)c2ccc(Cl)c(F)c2n1CC(=O)N1CCC(c2ccc(F)cc2)C1` (single isomer, unassigned; enantiomer b) [Compound 1-75, 3-((6-Chloro-7-fluoro-1-(2-(3-(4-fluorophenyl)pyrrolidin-1-yl)-2-oxoethyl)-2-methyl-1H-indol-3-yl)thio)benzoic acid Enantiomer B], the IC50 is ≤ 500 nM.
The compound `Cc1c(Sc2cccc(C(=O)O)c2)c2ccc(Cl)c(F)c2n1CC(=O)Nc1ccccc1` [Compound 1-3, 3-((6-Chloro-7-fluoro-2-methyl-1-(2-oxo-2-(phenylamino)ethyl)-1H-indol-3-yl)thio)benzoic acid] had an IC50 of 500 to 3000 nM.
As to `Cc1c(Sc2cccc(C(=O)O)c2F)c2ccc(Cl)c(F)c2n1CC(=O)N1CC2(CCC2)c2c(F)cccc21` [Compound 3-96, 3-((6-Chloro-7-fluoro-1-(2-(4′-fluorospiro[cyclobutane-1,3′-indolin]-1′-yl)-2-oxoethyl)-2-methyl-1H-indol-3-yl)thio)-2-fluorobenzoic acid], the IC50 is ≤ 500 nM.
On to `Cc1c(Sc2cccc(C(=O)O)c2)c2ccc(Cl)c(F)c2n1CC(=O)N1CCc2ccc(Cl)cc21` [Compound 1-73, 3-((6-Chloro-1-(2-(6-chloroindolin-1-yl)-2-oxoethyl)-7-fluoro-2-methyl-1H-indol-3-yl)thio)benzoic acid], for which the IC50 was ≤ 500 nM.
